Measurements reported in ChEMBL document CHEMBL3886955, “Pyrrolidine derivatives and their use as complement pathway modulators” (2016).

Molecular target: Complement factor D (Homo sapiens, UniProt P00746)
Test: In Vitro Assay: Method 1: Recombinant human factor D (expressed in E. coli and purified using standard methods) at 10 nM concentration is incubated with test compound at various concentrations for 1 hour at room temperature in 0.1 M Hepes buffer, pH 7.5, containing 1 mM MgCl2, 1 M NaCl and 0.05% CHAPS. A synthetic substrate Z-Lys-thiobenzyl and 2,4-dinitrobenzenesulfonyl-fluoresceine are added to final concentrations of 200 μM and 25 μM, respectively. The increase in fluorescence is recorded at excitation of 485 nm and emission at 535 nm in a microplate spectrofluorimeter. IC50 values are calculated from percentage of inhibition of complement factor D-activity as a function of test compound concentration.

Chain of Complement factor D (P00746 whole entry): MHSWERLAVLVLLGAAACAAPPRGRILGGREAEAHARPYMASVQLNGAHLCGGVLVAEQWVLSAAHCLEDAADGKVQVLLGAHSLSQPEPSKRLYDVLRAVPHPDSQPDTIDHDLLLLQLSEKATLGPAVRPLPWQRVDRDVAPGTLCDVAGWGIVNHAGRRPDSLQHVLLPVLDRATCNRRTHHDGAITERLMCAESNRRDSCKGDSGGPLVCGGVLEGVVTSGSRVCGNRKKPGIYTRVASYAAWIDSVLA

IC50: 24 nM
SMILES: CC(C)=C(F)CNC(=O)[C@@H]1C[C@H]2C[C@H]2N1C(=O)Nc1cn(C(N)=O)c2ccccc12
